Source: ChEMBL document CHEMBL3217646, “Inhibitors of bacterial tubulin target bacterial membranes in vivo” (Medchemcomm, 2013)
Converted amounts (≈) assume the structure as drawn. The source made the active and inactive calls. No cut-off for these calls is given here.

Tests used:
Bacillus subtilis [1] = assay: Induction of membrane associated proteins mislocalization in Bacillus subtilis subsp. subtilis str. 168 assessed as reduction in GFP-MinD protein localization by fluorescence assay; type: functional, organism-based
Bacillus subtilis [2] = assay: Antimicrobial activity against Bacillus subtilis subsp. subtilis str. 168 after 18 hrs by macro-dilution method; type: functional; conditions: subsp. subtilis str. 168, 18 h
Bacillus subtilis [3] = assay: Induction of transmembrane potential loss in Bacillus subtilis subsp. subtilis str. 168 assessed as lambda575/lambda530 fluorescence emission intensity ratio at 1 times MIC pre-treated for 20 mins and measured 15 mins post dye addition by DiOC2 dye based flow cytometry (reference value: 0.257 +/- 0.003 no unit); type: functional
Bacillus subtilis [4] = assay: Increase in bacterial membrane permeability in Bacillus subtilis subsp. subtilis str. 168 at 1 times MIC pre-treated for 5 mins and measured 30 mins post dye addition by propidium iodide dye based flow cytometry; type: functional, organism-based
Bacillus subtilis [5] = assay: Induction of transmembrane potential loss in Bacillus subtilis subsp. subtilis str. 168 assessed as lambda575/lambda530 fluorescence emission intensity ratio at 1 times MIC pre-treated for 5 mins and measured 15 mins post dye addition by DiOC2 dye based flow cytometry; type: functional
C2C12 [6] = assay: Induction of membrane disruption in mouse C2C12 cells assessed as increase in oxygen consumption rate at 0.1 to 1.2 uM; type: functional, cell-based
Bacillus subtilis [7] = assay: Protonophore activity in Bacillus subtilis subsp. subtilis str. 168 assessed as induction of rapid equlibration of delta-pH at 1 times MIC; type: functional, organism-based
C2C12 [8] = assay: Induction of membrane disruption in mouse C2C12 cells assessed as maximum increase in oxygen consumption rate at 0.6 uM; type: functional, cell-based
Bacillus subtilis [9] = assay: Induction of transmembrane potential loss in Bacillus subtilis subsp. subtilis str. 168 at 1 times MIC pre-treated for 5 mins and measured 15 mins post dye addition by DiOC2 dye based flow cytometry; type: functional, organism-based
C2C12 [10] = assay: Induction of membrane disruption in mouse C2C12 cells assessed as maximum increase in oxygen consumption rate at 30 uM; type: functional, cell-based
Bacillus subtilis [11] = assay: Protonophore activity in Bacillus subtilis subsp. subtilis str. 168 assessed as induction of rapid equlibration of delta-pH at 30 uM; type: functional, organism-based
C2C12 [12] = assay: Induction of membrane disruption in mouse C2C12 cells assessed as change in oxygen consumption rate; type: functional, cell-based

Structure (SMILES) | Activity (Bacillus subtilis [1]) | MIC (Bacillus subtilis [2]) [µM] | Ratio (Bacillus subtilis [3]) | Activity (Bacillus subtilis [4]) | Ratio (Bacillus subtilis [5]) | Activity (C2C12 [6]) | Activity (Bacillus subtilis [7]) | Activity (C2C12 [8]) | Activity (Bacillus subtilis [9]) | Activity (C2C12 [10]) | Activity (Bacillus subtilis [11]) | Activity (C2C12 [12])
CO/N=C(\C(=O)N[C@@H]1C(=O)N2C(C(=O)O)=C(COC(N)=O)CS[C@H]12)c1ccco1 [CEFUROXIME] | inactive | 20 (≈ 8.49 µg/mL) | 0.306 | inactive |  |  |  |  |  |  |  | 
N#CC(C#N)=NNc1cccc(Cl)c1 [CARBONYL CYANIDE M-CHLOROPHENYLHYDRAZONE] | Active | 10 (≈ 2.05 µg/mL) |  | inactive | 0.045 | Active | Active | Active |  |  |  | 
O=C/C=C/c1ccccc1 [CINNAMALDEHYDE] | Active | 2500 (≈ 330 µg/mL) |  | Active |  |  | inactive |  | Active |  |  | 
COC(=O)CC1Cc2cc3cc(OC)c(-c4c(OC)cc5cc6c(c(O)c5c4O)C(=O)OC(CC(=O)OC)C6)c(O)c3c(O)c2C(=O)O1 (stereo unspecified) [VIRIDITOXIN] | Active | 0.63 (≈ 0.417 µg/mL) |  |  |  |  | inactive |  | inactive |  |  | 
C[n+]1cc2c3c(ccc2c2ccc4cc5c(cc4c21)OCO5)OCO3 [SANGUINARIUM] |  | 10 |  | Active |  |  | inactive |  | Active |  |  | 
Oc1ccc(Cl)cc1Cc1cc(Cl)cc(Cc2cc(Cl)ccc2O)c1O | Active | 0.16 (≈ 0.0656 µg/mL) |  | inactive |  |  | inactive |  | Active | Active | Active | 
CC(C)c1c(O)ccc2c1CC[C@H]1C(C)(C)CCC[C@]21C [TOTAROL] | Active | 2.5 (≈ 0.716 µg/mL) |  | Active |  |  | inactive |  | Active |  |  | inactive
NC(=O)c1c(F)ccc(OCc2nc3cc(Cl)cnc3s2)c1F | inactive | 2.5 (≈ 0.889 µg/mL) |  | inactive |  |  |  |  | inactive |  |  | 
